C=CC(=O)NC(C)(C)CS(=O)(=O)O
Conditions | solubility (mole fraction)
in 1,4-dioxane, 288.15 K | 0.000105
in 1,4-dioxane, 293.15 K | 0.000168
in 1,4-dioxane, 298.15 K | 0.000274
in 1,4-dioxane, 303.15 K | 0.000425
in 1,4-dioxane, 308.15 K | 0.000657
in 1,4-dioxane, 313.15 K | 0.000978
in 1,4-dioxane, 318.15 K | 0.00139
in 1,4-dioxane, 323.15 K | 0.00195
in 1,4-dioxane, 328.15 K | 0.00268
in acetone, 283.15 K | 0.00625
in acetone, 288.15 K | 0.00695
in acetone, 293.15 K | 0.00795
in acetone, 298.15 K | 0.00921
in acetone, 303.15 K | 0.0107
in acetone, 308.15 K | 0.0126
in acetone, 313.15 K | 0.0148
in acetone, 318.15 K | 0.0173
in acetone, 323.15 K | 0.0205
in acetone, 328.15 K | 0.0244
in acetonitrile, 283.15 K | 3.11e-05
in acetonitrile, 288.15 K | 5.19e-05
in acetonitrile, 293.15 K | 9.14e-05
in acetonitrile, 298.15 K | 0.000154
in acetonitrile, 303.15 K | 0.000265
in acetonitrile, 308.15 K | 0.000436
in acetonitrile, 313.15 K | 0.000696
in acetonitrile, 318.15 K | 0.00107
in acetonitrile, 323.15 K | 0.0016
in acetonitrile, 328.15 K | 0.00237
in cyclohexane, 283.15 K | 2.64e-05
in cyclohexane, 288.15 K | 4.73e-05
in cyclohexane, 293.15 K | 7.77e-05
in cyclohexane, 298.15 K | 0.000139
in cyclohexane, 303.15 K | 0.000229
in cyclohexane, 308.15 K | 0.000359
in cyclohexane, 313.15 K | 0.000567
in cyclohexane, 318.15 K | 0.000867
in cyclohexane, 323.15 K | 0.00125
in cyclohexane, 328.15 K | 0.00179
in ethanol, 283.15 K | 0.00721
in ethanol, 288.15 K | 0.00794
in ethanol, 293.15 K | 0.00893
in ethanol, 298.15 K | 0.0102
in ethanol, 303.15 K | 0.0118
in ethanol, 308.15 K | 0.0138
in ethanol, 313.15 K | 0.0161
in ethanol, 318.15 K | 0.0189
in ethanol, 323.15 K | 0.0225
in ethanol, 328.15 K | 0.0264
in ethyl acetate, 283.15 K | 0.00106
in ethyl acetate, 288.15 K | 0.00142
in ethyl acetate, 293.15 K | 0.00198
in ethyl acetate, 298.15 K | 0.00262
in ethyl acetate, 303.15 K | 0.00338
in ethyl acetate, 308.15 K | 0.00431
in ethyl acetate, 313.15 K | 0.00543
in ethyl acetate, 318.15 K | 0.00672
in ethyl acetate, 323.15 K | 0.00829
in ethyl acetate, 328.15 K | 0.0103
in ethylene glycol, 283.15 K | 0.000463
in ethylene glycol, 288.15 K | 0.000687
in ethylene glycol, 293.15 K | 0.00105
in ethylene glycol, 298.15 K | 0.00162
in ethylene glycol, 303.15 K | 0.00237
in ethylene glycol, 308.15 K | 0.00329
in ethylene glycol, 313.15 K | 0.00444
in ethylene glycol, 318.15 K | 0.00583
in ethylene glycol, 323.15 K | 0.00757
in ethylene glycol, 328.15 K | 0.00972
in isobutanol, 283.15 K | 0.00229
in isobutanol, 288.15 K | 0.00267
in isobutanol, 293.15 K | 0.00322
in isobutanol, 298.15 K | 0.00394
in isobutanol, 303.15 K | 0.00485
in isobutanol, 308.15 K | 0.00596
in isobutanol, 313.15 K | 0.00728
in isobutanol, 318.15 K | 0.00885
in isobutanol, 323.15 K | 0.0107
in isobutanol, 328.15 K | 0.0131
in isopropanol, 283.15 K | 0.000208
in isopropanol, 288.15 K | 0.000333
in isopropanol, 293.15 K | 0.00056
in isopropanol, 298.15 K | 0.000882
in isopropanol, 303.15 K | 0.00129
in isopropanol, 308.15 K | 0.00186
in isopropanol, 313.15 K | 0.00266
in isopropanol, 318.15 K | 0.00373
in isopropanol, 323.15 K | 0.00508
in isopropanol, 328.15 K | 0.00671
in methanol, 283.15 K | 0.00916
in methanol, 288.15 K | 0.0103
in methanol, 293.15 K | 0.0117
in methanol, 298.15 K | 0.0138
in methanol, 303.15 K | 0.0163
in methanol, 308.15 K | 0.0193
in methanol, 313.15 K | 0.0227
in methanol, 318.15 K | 0.0268
in methanol, 323.15 K | 0.0322
in methanol, 328.15 K | 0.0383
in n-butanol, 283.15 K | 0.00359
in n-butanol, 288.15 K | 0.00403
in n-butanol, 293.15 K | 0.00468
in n-butanol, 298.15 K | 0.0055
in n-butanol, 303.15 K | 0.00649
in n-butanol, 308.15 K | 0.00773
in n-butanol, 313.15 K | 0.00922
in n-butanol, 318.15 K | 0.011
in n-butanol, 323.15 K | 0.0133
in n-butanol, 328.15 K | 0.0159
in n-heptanol, 283.15 K | 0.00327
in n-heptanol, 288.15 K | 0.00369
in n-heptanol, 293.15 K | 0.00426
in n-heptanol, 298.15 K | 0.00496
in n-heptanol, 303.15 K | 0.00582
in n-heptanol, 308.15 K | 0.0069
in n-heptanol, 313.15 K | 0.00824
in n-heptanol, 318.15 K | 0.00987
in n-heptanol, 323.15 K | 0.0118
in n-heptanol, 328.15 K | 0.0145
in n-propanol, 283.15 K | 0.00399
in n-propanol, 288.15 K | 0.00463
in n-propanol, 293.15 K | 0.00542
in n-propanol, 298.15 K | 0.00646
in n-propanol, 303.15 K | 0.00764
in n-propanol, 308.15 K | 0.0091
in n-propanol, 313.15 K | 0.0108
in n-propanol, 318.15 K | 0.0129
in n-propanol, 325.15 K | 0.0158
in n-propanol, 328.15 K | 0.0188

From BigSolDB 2.1
